Assay results published in ChEMBL document CHEMBL4507304, “Data for DCP probe TP-021” (2021).

How the values were obtained:
[1] = molecular target: Serine/threonine-protein kinase WNK4 (Homo sapiens) (UniProt Q96J92); details: Compound concentration 1000.0 nM
[2] = molecular target: Vascular endothelial growth factor receptor 2 (Homo sapiens) (UniProt P35968); details: Compound concentration 1000.0 nM
[3] = molecular target: Casein kinase I isoform epsilon (Homo sapiens) (UniProt P49674); details: Compound concentration 1000.0 nM
[4] = molecular target: Rhodopsin kinase GRK7 (Homo sapiens) (UniProt Q8WTQ7); details: Compound concentration 1000.0 nM
[5] = molecular target: Tyrosine-protein kinase JAK1 (Homo sapiens) (UniProt P23458); details: Compound concentration 1000.0 nM
[6] = molecular target: Rho-associated protein kinase 1 (Homo sapiens) (UniProt Q13464); details: Compound concentration 1000.0 nM
[7] = molecular target: Mitogen-activated protein kinase 1 (Homo sapiens) (UniProt P28482); details: Compound concentration 1000.0 nM
Mitogen-activated protein kinase 1 (Homo sapiens), sequence (P28482 whole entry): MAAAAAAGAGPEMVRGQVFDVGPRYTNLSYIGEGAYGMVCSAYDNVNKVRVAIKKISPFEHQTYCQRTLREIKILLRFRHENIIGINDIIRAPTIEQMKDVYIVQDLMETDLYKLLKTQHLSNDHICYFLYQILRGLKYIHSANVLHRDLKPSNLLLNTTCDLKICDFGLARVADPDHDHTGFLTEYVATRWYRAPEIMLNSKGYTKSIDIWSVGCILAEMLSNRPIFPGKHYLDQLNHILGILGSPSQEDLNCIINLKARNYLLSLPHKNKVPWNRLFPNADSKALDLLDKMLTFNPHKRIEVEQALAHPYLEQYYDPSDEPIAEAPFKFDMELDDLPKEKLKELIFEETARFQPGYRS

[8] = molecular target: Receptor tyrosine-protein kinase erbB-3 (Homo sapiens) (UniProt P21860); details: Compound concentration 1000.0 nM
[9] = molecular target: Dual specificity mitogen-activated protein kinase kinase 2 (Homo sapiens) (UniProt P36507); details: Compound concentration 1000.0 nM
[10] = molecular target: Serine/threonine-protein kinase MRCK gamma (Homo sapiens) (UniProt Q6DT37); details: Compound concentration 1000.0 nM
[11] = molecular target: Proto-oncogene tyrosine-protein kinase ROS (Homo sapiens) (UniProt P08922); details: Compound concentration 1000.0 nM
[12] = system: Phosphatidylinositol 4,5-bisphosphate 3-kinase catalytic subunit alpha isoform (Homo sapiens), P42336 [Q546K]; details: Compound concentration 1000.0 nM
[13] = system: Epidermal growth factor receptor (Homo sapiens), P00533 [L861Q]; details: Compound concentration 1000.0 nM
[14] = molecular target: Death-associated protein kinase 3 (Homo sapiens) (UniProt O43293); details: Compound concentration 1000.0 nM
[15] = molecular target: Mitogen-activated protein kinase 9 (Homo sapiens) (UniProt P45984); details: Compound concentration 1000.0 nM
[16] = molecular target: Mitogen-activated protein kinase kinase kinase 6 (Homo sapiens) (UniProt O95382); details: Compound concentration 1000.0 nM
[17] = molecular target: Insulin receptor-related protein (Homo sapiens) (UniProt P14616); details: Compound concentration 1000.0 nM
[18] = molecular target: Beta-adrenergic receptor kinase 1 (Homo sapiens) (UniProt P25098); details: Compound concentration 1000.0 nM
[19] = molecular target: D(3) dopamine receptor (Homo sapiens) (UniProt P35462); details: Compound concentration 10.0 uM
D(3) dopamine receptor (Homo sapiens), sequence (P35462 whole entry): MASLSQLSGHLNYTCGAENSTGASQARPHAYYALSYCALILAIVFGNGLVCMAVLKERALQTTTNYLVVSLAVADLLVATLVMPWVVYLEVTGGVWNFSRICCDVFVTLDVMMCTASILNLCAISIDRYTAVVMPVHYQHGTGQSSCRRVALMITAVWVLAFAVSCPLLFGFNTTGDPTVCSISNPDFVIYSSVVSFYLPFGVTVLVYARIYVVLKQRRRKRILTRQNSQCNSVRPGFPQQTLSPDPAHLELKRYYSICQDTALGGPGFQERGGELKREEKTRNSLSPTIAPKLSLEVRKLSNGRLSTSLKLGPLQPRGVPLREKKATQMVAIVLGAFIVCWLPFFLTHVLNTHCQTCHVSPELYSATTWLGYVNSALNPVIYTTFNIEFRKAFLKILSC

[20] = molecular target: Alpha-2B adrenergic receptor (Homo sapiens) (UniProt P18089); details: Compound concentration 10.0 uM
[21] = molecular target: Serine/threonine-protein kinase Nek6 (Homo sapiens) (UniProt Q9HC98); details: Compound concentration 1000.0 nM
Serine/threonine-protein kinase Nek6 (Homo sapiens), sequence (Q9HC98 whole entry): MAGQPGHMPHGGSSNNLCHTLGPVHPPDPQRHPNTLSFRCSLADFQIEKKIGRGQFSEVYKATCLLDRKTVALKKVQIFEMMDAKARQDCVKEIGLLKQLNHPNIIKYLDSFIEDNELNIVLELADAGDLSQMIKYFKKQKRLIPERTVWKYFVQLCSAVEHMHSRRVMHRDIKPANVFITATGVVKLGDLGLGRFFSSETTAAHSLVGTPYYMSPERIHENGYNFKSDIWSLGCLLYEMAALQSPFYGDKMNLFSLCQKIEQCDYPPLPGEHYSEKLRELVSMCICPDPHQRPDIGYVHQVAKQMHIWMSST

[22] = molecular target: AP2-associated protein kinase 1 (Homo sapiens) (UniProt Q2M2I8); details: Compound concentration 1000.0 nM
[23] = molecular target: Bone morphogenetic protein receptor type-1A (Homo sapiens) (UniProt P36894); details: Compound concentration 1000.0 nM
[24] = molecular target: Sodium-dependent serotonin transporter (Homo sapiens) (UniProt P31645); details: Compound concentration 10.0 uM
[25] = molecular target: Serine/threonine-protein kinase Nek11 (Homo sapiens) (UniProt Q8NG66); details: Compound concentration 1000.0 nM
[26] = molecular target: Tyrosine-protein kinase receptor Tie-1 (Homo sapiens) (UniProt P35590); details: Compound concentration 1000.0 nM
[27] = molecular target: Casein kinase II subunit alpha (Homo sapiens) (UniProt P68400); details: Compound concentration 1000.0 nM
[28] = molecular target: Activated CDC42 kinase 1 (Homo sapiens) (UniProt Q07912); details: Compound concentration 1000.0 nM
Activated CDC42 kinase 1 (Homo sapiens), sequence (Q07912 whole entry, looked up): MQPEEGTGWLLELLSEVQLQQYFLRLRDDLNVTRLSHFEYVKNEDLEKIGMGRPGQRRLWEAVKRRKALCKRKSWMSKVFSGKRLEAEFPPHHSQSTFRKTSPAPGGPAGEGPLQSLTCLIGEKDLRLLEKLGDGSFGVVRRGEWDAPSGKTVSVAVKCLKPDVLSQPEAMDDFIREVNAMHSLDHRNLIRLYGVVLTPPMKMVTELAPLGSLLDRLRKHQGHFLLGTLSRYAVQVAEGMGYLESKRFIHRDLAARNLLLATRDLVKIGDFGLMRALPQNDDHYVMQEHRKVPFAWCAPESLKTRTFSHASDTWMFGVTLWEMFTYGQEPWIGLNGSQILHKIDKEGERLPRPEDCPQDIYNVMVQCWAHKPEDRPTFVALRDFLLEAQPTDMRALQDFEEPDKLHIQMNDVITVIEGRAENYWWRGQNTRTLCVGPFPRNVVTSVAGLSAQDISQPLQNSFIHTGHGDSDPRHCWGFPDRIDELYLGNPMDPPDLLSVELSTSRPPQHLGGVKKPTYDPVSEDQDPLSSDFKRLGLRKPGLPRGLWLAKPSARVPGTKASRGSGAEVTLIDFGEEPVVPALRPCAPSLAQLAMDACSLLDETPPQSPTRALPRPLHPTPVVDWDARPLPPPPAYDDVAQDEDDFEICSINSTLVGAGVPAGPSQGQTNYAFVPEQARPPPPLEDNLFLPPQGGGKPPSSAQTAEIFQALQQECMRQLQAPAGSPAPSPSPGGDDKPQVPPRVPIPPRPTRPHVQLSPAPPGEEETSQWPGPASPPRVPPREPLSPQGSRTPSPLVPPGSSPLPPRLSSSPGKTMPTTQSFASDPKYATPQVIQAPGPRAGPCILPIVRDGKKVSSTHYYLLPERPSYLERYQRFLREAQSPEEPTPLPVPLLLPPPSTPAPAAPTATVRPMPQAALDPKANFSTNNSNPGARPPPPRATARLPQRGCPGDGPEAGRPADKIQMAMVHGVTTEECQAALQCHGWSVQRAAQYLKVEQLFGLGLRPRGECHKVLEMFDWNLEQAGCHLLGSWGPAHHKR

[29] = molecular target: Cyclin-dependent kinase 18 (Homo sapiens) (UniProt Q07002); details: Compound concentration 1000.0 nM
[30] = molecular target: Wee1-like protein kinase (Homo sapiens) (UniProt P30291); details: Compound concentration 1000.0 nM
[31] = molecular target: Macrophage colony-stimulating factor 1 receptor (Homo sapiens) (UniProt P07333); details: Compound concentration 1000.0 nM
[32] = system: Leucine-rich repeat serine/threonine-protein kinase 2 (Homo sapiens), Q5S007 [G2019S]; details: Compound concentration 1000.0 nM
[33] = molecular target: Cyclin-dependent kinase-like 1 (Homo sapiens) (UniProt Q00532); details: Compound concentration 1000.0 nM
[34] = molecular target: Receptor tyrosine-protein kinase erbB-4 (Homo sapiens) (UniProt Q15303); details: Compound concentration 1000.0 nM
[35] = system: Phosphatidylinositol 4,5-bisphosphate 3-kinase catalytic subunit alpha isoform (Homo sapiens), P42336 [E542K]; details: Compound concentration 1000.0 nM
[36] = system: Receptor-type tyrosine-protein kinase FLT3 (Homo sapiens), P36888 [UNDEFINED MUTATION]; details: Compound concentration 1000.0 nM
[37] = molecular target: Serine/threonine-protein kinase Chk2 (Homo sapiens) (UniProt O96017); details: Compound concentration 1000.0 nM
[38] = molecular target: Phosphatidylinositol 3-kinase catalytic subunit type 3 (Homo sapiens) (UniProt Q8NEB9); details: Compound concentration 1000.0 nM
Phosphatidylinositol 3-kinase catalytic subunit type 3 (Homo sapiens), sequence (Q8NEB9 whole entry, canonical isoform): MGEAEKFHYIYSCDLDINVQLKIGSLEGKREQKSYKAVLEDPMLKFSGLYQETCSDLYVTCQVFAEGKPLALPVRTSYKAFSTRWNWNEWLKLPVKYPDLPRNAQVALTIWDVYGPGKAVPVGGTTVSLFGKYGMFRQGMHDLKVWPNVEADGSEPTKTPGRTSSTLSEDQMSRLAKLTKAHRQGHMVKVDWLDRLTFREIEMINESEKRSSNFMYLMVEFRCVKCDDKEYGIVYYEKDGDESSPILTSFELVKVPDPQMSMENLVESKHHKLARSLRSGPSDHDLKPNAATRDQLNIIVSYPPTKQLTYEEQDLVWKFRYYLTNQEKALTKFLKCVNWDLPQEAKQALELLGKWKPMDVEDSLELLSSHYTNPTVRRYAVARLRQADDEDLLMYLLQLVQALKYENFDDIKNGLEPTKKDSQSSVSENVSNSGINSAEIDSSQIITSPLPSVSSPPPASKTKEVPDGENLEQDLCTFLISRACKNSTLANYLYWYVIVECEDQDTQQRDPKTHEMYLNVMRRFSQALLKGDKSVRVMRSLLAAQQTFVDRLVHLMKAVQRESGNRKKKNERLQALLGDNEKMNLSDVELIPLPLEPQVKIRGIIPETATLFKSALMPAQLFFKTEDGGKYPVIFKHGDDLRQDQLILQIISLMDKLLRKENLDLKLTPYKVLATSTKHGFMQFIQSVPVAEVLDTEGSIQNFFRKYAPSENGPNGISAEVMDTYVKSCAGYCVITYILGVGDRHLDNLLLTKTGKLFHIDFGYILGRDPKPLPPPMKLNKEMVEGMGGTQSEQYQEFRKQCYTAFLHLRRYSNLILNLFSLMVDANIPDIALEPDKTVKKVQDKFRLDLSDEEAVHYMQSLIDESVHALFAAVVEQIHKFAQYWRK

[39] = system: Phosphatidylinositol 4,5-bisphosphate 3-kinase catalytic subunit alpha isoform (Homo sapiens), P42336 [E545K]; details: Compound concentration 1000.0 nM
Phosphatidylinositol 4,5-bisphosphate 3-kinase catalytic subunit alpha isoform (Homo sapiens), P42336 [E545K], sequence (P42336 whole entry E545K, canonical isoform): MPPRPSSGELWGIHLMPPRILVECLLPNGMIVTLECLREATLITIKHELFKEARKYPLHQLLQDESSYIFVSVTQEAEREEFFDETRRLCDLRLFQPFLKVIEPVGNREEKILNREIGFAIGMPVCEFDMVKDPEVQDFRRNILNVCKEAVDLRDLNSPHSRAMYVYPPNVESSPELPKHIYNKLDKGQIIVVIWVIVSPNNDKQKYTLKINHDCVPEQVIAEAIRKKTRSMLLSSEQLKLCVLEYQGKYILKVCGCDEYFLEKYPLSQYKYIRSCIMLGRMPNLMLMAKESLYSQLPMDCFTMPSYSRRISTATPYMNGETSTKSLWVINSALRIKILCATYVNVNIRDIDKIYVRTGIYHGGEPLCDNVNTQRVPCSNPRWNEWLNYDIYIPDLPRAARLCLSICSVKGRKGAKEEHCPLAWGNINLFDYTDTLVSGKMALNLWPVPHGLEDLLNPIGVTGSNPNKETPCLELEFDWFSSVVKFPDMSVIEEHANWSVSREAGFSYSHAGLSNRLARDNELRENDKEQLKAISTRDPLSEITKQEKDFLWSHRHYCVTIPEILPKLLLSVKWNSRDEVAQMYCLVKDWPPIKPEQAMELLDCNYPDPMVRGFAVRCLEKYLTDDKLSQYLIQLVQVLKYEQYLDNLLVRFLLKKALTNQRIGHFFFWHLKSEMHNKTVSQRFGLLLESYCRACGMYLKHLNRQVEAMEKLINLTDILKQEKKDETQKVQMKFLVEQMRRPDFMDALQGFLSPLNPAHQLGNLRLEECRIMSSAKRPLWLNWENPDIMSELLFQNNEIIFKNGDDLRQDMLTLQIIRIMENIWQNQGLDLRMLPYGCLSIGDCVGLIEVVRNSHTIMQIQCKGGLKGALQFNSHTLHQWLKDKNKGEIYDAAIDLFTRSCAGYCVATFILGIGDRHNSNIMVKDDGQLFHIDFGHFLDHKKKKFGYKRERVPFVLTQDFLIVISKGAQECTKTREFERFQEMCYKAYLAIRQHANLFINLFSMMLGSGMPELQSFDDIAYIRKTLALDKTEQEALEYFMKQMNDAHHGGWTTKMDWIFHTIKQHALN

[40] = molecular target: BDNF/NT-3 growth factors receptor (Homo sapiens) (UniProt Q16620); details: Compound concentration 1000.0 nM
[41] = system: Epidermal growth factor receptor (Homo sapiens), P00533 [T790M]; details: Compound concentration 1000.0 nM
[42] = molecular target: Homeodomain-interacting protein kinase 2 (Homo sapiens) (UniProt Q9H2X6); details: Compound concentration 1000.0 nM
[43] = molecular target: Ephrin type-B receptor 1 (Homo sapiens) (UniProt P54762); details: Compound concentration 1000.0 nM
Ephrin type-B receptor 1 (Homo sapiens), sequence (P54762 whole entry): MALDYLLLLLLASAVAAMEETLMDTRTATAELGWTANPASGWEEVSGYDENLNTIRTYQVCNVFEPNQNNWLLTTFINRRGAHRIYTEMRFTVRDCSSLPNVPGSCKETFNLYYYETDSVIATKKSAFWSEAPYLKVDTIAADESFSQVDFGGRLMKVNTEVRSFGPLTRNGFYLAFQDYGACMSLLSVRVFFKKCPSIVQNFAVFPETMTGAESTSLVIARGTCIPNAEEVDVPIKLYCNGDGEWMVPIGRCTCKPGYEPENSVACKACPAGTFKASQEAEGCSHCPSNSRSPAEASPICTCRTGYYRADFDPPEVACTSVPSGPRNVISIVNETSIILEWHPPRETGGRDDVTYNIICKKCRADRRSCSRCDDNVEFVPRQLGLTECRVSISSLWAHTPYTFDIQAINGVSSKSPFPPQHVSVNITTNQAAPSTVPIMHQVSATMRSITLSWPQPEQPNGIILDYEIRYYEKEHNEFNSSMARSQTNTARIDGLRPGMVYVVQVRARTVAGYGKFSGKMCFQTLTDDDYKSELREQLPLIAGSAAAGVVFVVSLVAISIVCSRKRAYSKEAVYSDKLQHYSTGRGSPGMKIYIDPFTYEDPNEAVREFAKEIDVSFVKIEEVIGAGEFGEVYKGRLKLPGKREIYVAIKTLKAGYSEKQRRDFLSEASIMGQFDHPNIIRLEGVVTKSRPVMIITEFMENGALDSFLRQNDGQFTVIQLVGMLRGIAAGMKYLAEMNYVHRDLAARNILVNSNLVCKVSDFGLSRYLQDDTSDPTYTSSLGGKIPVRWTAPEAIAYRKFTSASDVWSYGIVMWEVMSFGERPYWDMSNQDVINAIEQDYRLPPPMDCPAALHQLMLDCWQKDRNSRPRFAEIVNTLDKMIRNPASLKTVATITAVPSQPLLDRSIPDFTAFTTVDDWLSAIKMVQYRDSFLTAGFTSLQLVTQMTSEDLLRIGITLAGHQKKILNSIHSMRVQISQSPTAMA

[44] = molecular target: Serine/threonine-protein kinase pim-1 (Homo sapiens) (UniProt P11309); details: Compound concentration 1000.0 nM
[45] = molecular target: Mitogen-activated protein kinase 8 (Homo sapiens) (UniProt P45983); details: Compound concentration 1000.0 nM

O=C1CCc2cc(Nc3cc(OC4CCOCC4)c([N+](=O)[O-])cc3Cl)ccc2N1
inactive: residual activity [1] 100% | residual activity [2] 100% | residual activity [3] 100% | residual activity [4] 100% | residual activity [5] 94% | residual activity [6] 80% | residual activity [7] 99% | residual activity [8] 98% | residual activity [9] 73% | residual activity [10] 99% | residual activity [11] 100% | residual activity [12] 70% | residual activity [13] 100% | residual activity [14] 91% | residual activity [15] 86% | residual activity [16] 91% | residual activity [17] 100% | residual activity [18] 87% | inhibition [19] 35.4% | inhibition [20] -0.04% | residual activity [21] 96% | residual activity [22] 100% | residual activity [23] 97% | inhibition [24] 23.5% | residual activity [25] 100% | residual activity [26] 100% | residual activity [27] 84% | residual activity [28] 100% | residual activity [29] 100% | residual activity [30] 99% | residual activity [31] 96% | residual activity [32] 100% | residual activity [33] 78% | residual activity [34] 100% | residual activity [35] 71% | residual activity [36] 89% | residual activity [37] 69% | residual activity [38] 100% | residual activity [39] 79% | residual activity [40] 100% | residual activity [41] 85% | residual activity [42] 100% | residual activity [43] 83% | residual activity [44] 96% | residual activity [45] 91%

N#Cc1ccc(Nc2ccc3[nH]c(=O)[nH]c3c2)c(Cl)c1
inactive: residual activity [1] 100% | residual activity [2] 99% | residual activity [3] 94% | residual activity [4] 100% | residual activity [5] 100% | residual activity [6] 100% | residual activity [7] 100% | residual activity [8] 97% | residual activity [9] 93% | residual activity [10] 100% | residual activity [11] 100% | residual activity [12] 93% | residual activity [13] 100% | residual activity [14] 92% | residual activity [15] 100% | residual activity [16] 100% | residual activity [17] 100% | residual activity [18] 100% | inhibition [19] 3.81% | inhibition [20] 13.1% | residual activity [21] 100% | residual activity [22] 100% | residual activity [23] 100% | inhibition [24] 21.1% | residual activity [25] 100% | residual activity [26] 91% | residual activity [27] 80% | residual activity [28] 90% | residual activity [29] 100% | residual activity [30] 87% | residual activity [31] 97% | residual activity [32] 93% | residual activity [33] 84% | residual activity [34] 100% | residual activity [35] 70% | residual activity [36] 100% | residual activity [37] 100% | residual activity [38] 100% | residual activity [39] 79% | residual activity [40] 100% | residual activity [41] 91% | residual activity [42] 100% | residual activity [43] 93% | residual activity [44] 90% | residual activity [45] 98%
